Key:
[1] = biological target: T1, CDK9/CycT1 (Homo sapiens, UniProt P50750); test: CDK9/CycT1 high ATP kinase assay (Method 1b); assay type: biochemical; details: 2 mM ATP
T1 construct: Recombinant full-length His-tagged human CDK9 and CycT1; His; purchased Invitrogen PV4131; host or cells: insect cells
Procedure: 1b. CDK9/CycT1 High ATP Kinase Assay
CDK9/CycT1-inhibitory activity of compounds of the present invention at a high ATP concentration after preincubation of enzyme and test compounds was quantified employing the CDK9/CycT1 TR-FRET assay as described in the following paragraphs.
Recombinant full-length His-tagged human CDK9 and CycT1, expressed in insect cells and purified by Ni-NTA affinity chromatography, were purchase from Invitrogen (Cat. No PV4131). As substrate for the kinase reaction biotinylated peptide biotin-Ttds-YISPLKSPYKISEG (C-terminus in amid form) was used which can be purchased e.g. form the company JERINI peptide technologies (Berlin, Germany). For the assay 50 n1 of a 100 fold concentrated solution of the test compound in DMSO was pipetted into a black low volume 384 well microtiter plate (Greiner Bio-One, Frickenhausen, Germany), 2 μl of a solution of CDK9/CycT1 in aqueous assay buffer [50 mM Tris/HCl pH 8.0, 10 mM MgCl2, 1.0 mM dithiothreitol, 0.1 mM sodium ortho-vanadate, 0.01% (v/v) Nonidet-P40 (Sigma)] were added and the mixture was incubated for 15 min at 22° C. to allow pre-binding of the test compounds to the enzyme before the start of the kinase reaction. Then the kinase reaction was started by the addition of 3 μl of a solution of adenosine-tri-phosphate (ATP, 3.3 mM=>final conc. in the 5 μl assay volume is 2 mM) and substrate (1.67 μM=>final conc. in the 5 μl assay volume is 1 μM) in assay buffer and the resulting mixture was incubated for a reaction time of […] at 22° C. The concentration of CDK9/CycT1 was adjusted depending of the activity of the enzyme lot and was chosen appropriate to have the assay in the linear range, typical concentrations were in the range of 0.5 μg/mL. The reaction was stopped by the addition of 5 μl of a solution of TR-FRET detection reagents (0.2 μM streptavidine-XL665 [Cisbio Bioassays, Codolet, France] and 1 nM anti-RB(pSer807/pSer811)-antibody from BD Pharmingen [#558389] and 1.2 nM LANCE EU-W1024 labeled anti-mouse IgG antibody [Perkin-Elmer, product no. AD0077]) in an aqueous EDTA-solution (100 mM EDTA, 0.2% (w/v) bovine serum albumin in 100 mM HEPES/NaOH pH 7.0).
The resulting mixture was incubated 1 h at 22° C. to allow the formation of complex between the phosphorylated biotinylated peptide and the detection reagents. Subsequently the amount of phosphorylated substrate was evaluated by measurement of the resonance energy transfer from the Eu-chelate to the streptavidine-XL. Therefore, the fluorescence emissions at 620 nm and 665 nm after excitation at 350 nm was measured in a HTRF reader, e.g. a Rubystar (BMG Labtechnologies, Offenburg, Germany) or a Viewlux (Perkin-Elmer). The ratio of the emissions at 665 nm and at […] was taken as the measure for the amount of phosphorylated substrate. […]

[2] = system: HeLa-MaTu-ADR cells; test: Proliferation assay, HeLa-MaTu-ADR; assay type: cell-based; details: Homo sapiens, 96 h; 4 days, crystal violet; read-out: Inhibition of HeLa-MaTu-ADR cell proliferation IC50
Procedure: (§1) Cultivated tumour cells (HeLa, human cervical tumour cells, ATCC CCL-2; NCI-H460, human non-small cell lung carcinoma cells, ATCC HTB-177; A2780, human ovarian carcinoma cells, ECACC #93112519; DU 145, hormone-independent human prostate carcinoma cells, ATCC HTB-81; HeLa-MaTu-ADR, multidrug-resistant human cervical carcinoma cells, EPO-GmbH Berlin; Caco-2, human colorectal carcinoma cells, ATCC HTB-37; B16F10, mouse melanoma cells, ATCC CRL-6475) were plated at a density of 5,000 cells/well (DU145, HeLa-MaTu-ADR), 3,000 cells/well (NCI-H460, HeLa), 2,500 cells/well (A2780), 1,500 cells/well (Caco-2), or 1,000 cells/well (B16F10) in a 96-well multititer plate in 200 μL of their respective growth medium supplemented 10% fetal calf serum. After 24 hours, the cells of one plate (zero-point plate) were stained with crystal violet (see below), while the medium of the other plates was replaced by fresh culture medium (200 μl), to which the test substances were added in various concentrations (0 μM, as well as in the range of 0.001-10 μM; the final concentration of the solvent dimethyl sulfoxide was 0.5%). The cells were incubated for 4 days in the presence of test substances. Cell proliferation was determined by staining the cells with crystal violet: the cells were fixed by adding 20 μl/measuring point of an 11% glutaric aldehyde solution for 15 minutes at room temperature. After three washing cycles of the fixed cells with water, the plates were dried at room temperature. The cells were stained by adding 100 μl/measuring point of a 0.1% crystal violet solution (pH 3.0). After three washing cycles of the stained cells with water, the plates were dried at room temperature. The dye was dissolved by adding 100 μl/measuring point of a 10% acetic acid solution. The extinction was determined by photometry at a wavelength of 595 nm. The change of cell number, in percent, was calculated by normalization of the measured values to the extinction values of the zero-point plate (=0%) and the extinction of the untreated (0 μm) cells (=100%). […]

[3] = system: Caco-2 cells; test: Proliferation assay, Caco-2; assay type: cell-based; details: Homo sapiens, Caco-2, 96 h; 4 days, crystal violet; read-out: Inhibition of Caco-2 cell proliferation IC50
Procedure: as §1

[4] = system: A2780 cells; test: Proliferation assay, A2780; assay type: cell-based; details: Homo sapiens, A2780, 96 h; 4 days, crystal violet; read-out: Inhibition of A2780 cell proliferation IC50
Procedure: Cultivated tumour cells (HeLa, human cervical tumour cells, ATCC CCL-2; NCI-H460, human non-small cell lung carcinoma cells, ATCC HTB-177; A2780, human ovarian carcinoma cells, ECACC #93112519; DU 145, hormone-independent human prostate carcinoma cells, ATCC HTB-81; HeLa-MaTu-ADR, multidrug-resistant human cervical carcinoma cells, EPO-GmbH Berlin; Caco-2, human colorectal carcinoma cells, ATCC HTB-37; B16F10, mouse melanoma cells, ATCC CRL-6475) were plated at a density of 5,000 cells/well (DU145, HeLa-MaTu-ADR), 3,000 cells/well (NCI-H460, HeLa), 2,500 cells/well (A2780), 1,500 cells/well (Caco-2), or 1,000 cells/well (B16F10) in a 96-well multititer plate in 200 μL of their respective growth medium supplemented 10% fetal calf serum. […] Cell proliferation was determined by staining the cells with crystal violet: the cells were fixed by adding 20 μl/measuring point of an 11% glutaric aldehyde solution for 15 minutes at room temperature. […] The extinction was determined by photometry at a wavelength of 595 nm. The change of cell number, in percent, was calculated by normalization of the measured values to the extinction values of the zero-point plate (=0%) and the extinction of the untreated (0 μm) cells (=100%). […]

T1 sequence (P50750 whole entry): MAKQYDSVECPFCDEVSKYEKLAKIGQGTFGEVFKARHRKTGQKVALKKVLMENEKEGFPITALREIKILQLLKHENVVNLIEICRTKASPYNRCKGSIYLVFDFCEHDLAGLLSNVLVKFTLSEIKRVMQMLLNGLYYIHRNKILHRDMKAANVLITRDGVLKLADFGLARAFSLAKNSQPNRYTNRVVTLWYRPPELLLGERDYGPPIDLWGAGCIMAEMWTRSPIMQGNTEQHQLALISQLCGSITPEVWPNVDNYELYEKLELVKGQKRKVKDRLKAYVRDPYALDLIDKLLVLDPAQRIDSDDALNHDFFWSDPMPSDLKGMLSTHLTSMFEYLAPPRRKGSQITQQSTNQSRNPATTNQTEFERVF
T1 sequence (O60563 whole entry partner): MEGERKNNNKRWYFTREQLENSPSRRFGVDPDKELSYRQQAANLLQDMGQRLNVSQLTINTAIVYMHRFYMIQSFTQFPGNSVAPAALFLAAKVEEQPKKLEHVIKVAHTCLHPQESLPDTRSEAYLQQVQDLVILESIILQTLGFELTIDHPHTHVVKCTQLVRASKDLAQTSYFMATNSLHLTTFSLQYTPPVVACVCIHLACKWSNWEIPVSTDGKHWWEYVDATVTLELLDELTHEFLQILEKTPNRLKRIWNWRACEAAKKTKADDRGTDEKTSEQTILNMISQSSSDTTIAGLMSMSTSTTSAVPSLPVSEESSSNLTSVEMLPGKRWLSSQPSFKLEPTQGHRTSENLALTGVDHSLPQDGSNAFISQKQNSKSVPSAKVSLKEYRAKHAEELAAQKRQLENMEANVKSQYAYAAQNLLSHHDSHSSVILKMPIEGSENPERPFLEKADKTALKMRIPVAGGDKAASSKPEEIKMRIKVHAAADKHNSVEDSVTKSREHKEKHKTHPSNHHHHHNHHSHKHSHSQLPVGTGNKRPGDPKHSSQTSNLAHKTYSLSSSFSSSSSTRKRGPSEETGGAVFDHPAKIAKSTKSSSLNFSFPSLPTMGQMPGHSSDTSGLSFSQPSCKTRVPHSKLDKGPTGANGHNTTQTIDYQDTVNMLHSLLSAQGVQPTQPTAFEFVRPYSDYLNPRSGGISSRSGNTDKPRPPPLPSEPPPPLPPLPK

IC50 [1] [nM] | IC50 [2] [nM] | IC50 [3] [nM] | IC50 [4] [nM] | Compound
16 | 212 | 341 | 65 | COc1cc(F)ccc1-c1cc(Nc2cc(CS(C)(=O)=O)ccn2)ncn1 [Example 1, 6-(4-Fluoro-2-methoxyphenyl)-N-{4-[(methylsulfonyl)methyl]pyridin-2-yl}pyrimidin-4-amine]
2 | 54 | 91 |  | COc1cc(F)ccc1-c1cc(Nc2cc(CS(C)(=O)=O)cc(C)n2)ncn1 [Example 2, 6-(4-Fluoro-2-methoxyphenyl)-N-{6-methyl-4-[(methylsulfonyl)methyl]pyridin-2-yl}pyrimidin-4-amine]
2 | 33 | 52 | 14 | COc1cc(F)ccc1-c1cc(Nc2cc(CS(C)(=O)=O)cc(C(F)(F)F)n2)ncn1 [Example 3, 6-(4-Fluoro-2-methoxyphenyl)-N-{4-[(methylsulfonyl)methyl]-6-(trifluoromethyl)pyridin-2-yl}pyrimidin-4-amine]
11 |  |  |  | COc1cc(F)ccc1-c1cc(Nc2cc(CS(C)(=O)=O)cc(F)n2)ncn1 [Example 4, 6-(4-Fluoro-2-methoxyphenyl)-N-{6-fluoro-4-[(methylsulfonyl)methyl]pyridin-2-yl}pyrimidin-4-amine]

— patent US9708293B2, “N-(pyridin-2-yl)pyrimidin-4-amine derivatives containing a sulfone group” (BAYER PHARMA AKTIENGESELLSCHAFT, priority 2012, dated 2017)
